{"source": "paper PMC12090182", "about": "“Repurposing of the RIPK1-Selective Benzo[1,4]oxazepin-4-one Scaffold for the Development of a Type III LIMK1/2 Inhibitor” (ACS Chemical Biology, 2025)", "experiment_in_all_cases": "scanMAX KINOMEscan (Eurofins)", "type_in_all_cases": "binding", "key": {"RIPK4": {"target": "RIPK4 (Homo sapiens, UniProt P57078)", "settings": "1000 nM, read-out: Percent Control", "from_the_text": "(§1) Supplement cb5c00097_si_002.xlsx, sheet \"Table S6 (Eurofins Selectivity)\" | column: Percent Control"}, "PRKCH": {"target": "PRKCH (Homo sapiens, UniProt P24723)", "settings": "compound concentration 100 nM; Entrez PRKCH; read-out: Percent Control", "from_the_text": "as §1"}, "PAK1": {"target": "PAK1 (Homo sapiens, UniProt Q13153)", "settings": "1000 nM, read-out: Percent Control", "from_the_text": "as §1"}, "ITK": {"target": "ITK (Homo sapiens, UniProt Q08881)", "settings": "1000 nM, read-out: Percent Control", "from_the_text": "as §1"}, "CAMK2D": {"target": "CAMK2D (Homo sapiens, UniProt Q13557)", "settings": "1000 nM, read-out: Percent Control", "from_the_text": "as §1"}, "ERBB4": {"target": "ERBB4 (Homo sapiens, UniProt Q15303)", "settings": "1000 nM, read-out: Percent Control", "from_the_text": "as §1"}, "MST1": {"target": "MST1 (Homo sapiens, UniProt Q13043)", "settings": "1000 nM, read-out: Percent Control", "from_the_text": "as §1"}, "CDK8": {"target": "CDK8 (Homo sapiens, UniProt P49336)", "settings": "1000 nM, read-out: Percent Control", "from_the_text": "as §1"}, "MARK2": {"target": "MARK2 (Homo sapiens, UniProt Q7KZI7)", "settings": "1000 nM, read-out: Percent Control", "from_the_text": "as §1"}, "EPHA4": {"target": "EPHA4 (Homo sapiens, UniProt P54764)", "sequence (P54764 20-986)": "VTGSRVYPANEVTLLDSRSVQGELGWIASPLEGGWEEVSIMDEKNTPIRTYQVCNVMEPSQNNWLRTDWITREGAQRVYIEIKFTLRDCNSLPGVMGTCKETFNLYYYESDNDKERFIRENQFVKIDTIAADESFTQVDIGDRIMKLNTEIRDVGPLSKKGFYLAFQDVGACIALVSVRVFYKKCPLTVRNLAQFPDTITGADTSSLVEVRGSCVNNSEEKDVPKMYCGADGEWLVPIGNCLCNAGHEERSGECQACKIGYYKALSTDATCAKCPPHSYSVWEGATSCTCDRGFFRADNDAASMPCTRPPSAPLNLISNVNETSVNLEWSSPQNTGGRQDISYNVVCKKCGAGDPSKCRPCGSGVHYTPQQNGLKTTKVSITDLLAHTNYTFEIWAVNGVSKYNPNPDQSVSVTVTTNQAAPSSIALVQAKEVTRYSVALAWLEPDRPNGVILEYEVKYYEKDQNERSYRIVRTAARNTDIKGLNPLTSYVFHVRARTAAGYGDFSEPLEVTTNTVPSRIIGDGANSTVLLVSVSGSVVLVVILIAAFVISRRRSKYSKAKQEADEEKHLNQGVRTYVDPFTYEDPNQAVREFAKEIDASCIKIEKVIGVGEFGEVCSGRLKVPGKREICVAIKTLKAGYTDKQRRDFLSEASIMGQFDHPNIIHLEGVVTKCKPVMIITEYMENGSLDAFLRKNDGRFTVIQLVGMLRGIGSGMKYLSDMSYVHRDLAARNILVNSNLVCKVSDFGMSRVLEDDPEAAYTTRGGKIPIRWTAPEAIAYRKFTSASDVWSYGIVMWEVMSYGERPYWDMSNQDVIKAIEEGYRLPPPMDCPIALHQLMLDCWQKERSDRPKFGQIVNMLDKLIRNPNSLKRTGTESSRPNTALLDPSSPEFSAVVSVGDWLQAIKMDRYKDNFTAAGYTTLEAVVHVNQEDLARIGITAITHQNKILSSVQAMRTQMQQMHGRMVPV", "settings": "read-out: Percent Control", "from_the_text": "as §1"}, "DCAMKL3": {"target": "DCAMKL3 (Homo sapiens, UniProt Q9C098)", "settings": "read-out: Percent Control", "from_the_text": "as §1"}, "AKT2": {"target": "AKT2 (Homo sapiens, UniProt P31751)", "sequence (P31751 whole entry)": "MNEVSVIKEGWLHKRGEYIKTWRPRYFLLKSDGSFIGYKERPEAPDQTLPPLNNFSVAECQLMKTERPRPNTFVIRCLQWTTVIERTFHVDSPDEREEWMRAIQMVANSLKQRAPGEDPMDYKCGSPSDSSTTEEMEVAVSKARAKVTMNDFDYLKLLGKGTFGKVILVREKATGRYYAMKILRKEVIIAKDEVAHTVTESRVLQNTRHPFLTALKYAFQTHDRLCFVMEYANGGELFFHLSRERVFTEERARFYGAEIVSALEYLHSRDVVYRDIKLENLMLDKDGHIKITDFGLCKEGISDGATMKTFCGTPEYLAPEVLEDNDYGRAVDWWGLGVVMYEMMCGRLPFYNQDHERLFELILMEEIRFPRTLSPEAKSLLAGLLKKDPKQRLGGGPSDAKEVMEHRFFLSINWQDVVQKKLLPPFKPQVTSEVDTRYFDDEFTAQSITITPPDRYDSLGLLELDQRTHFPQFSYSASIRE", "settings": "read-out: Percent Control", "from_the_text": "as §1"}, "ALK": {"target": "ALK (Homo sapiens, UniProt Q9UM73)", "sequence (Q9UM73 19-1620)": "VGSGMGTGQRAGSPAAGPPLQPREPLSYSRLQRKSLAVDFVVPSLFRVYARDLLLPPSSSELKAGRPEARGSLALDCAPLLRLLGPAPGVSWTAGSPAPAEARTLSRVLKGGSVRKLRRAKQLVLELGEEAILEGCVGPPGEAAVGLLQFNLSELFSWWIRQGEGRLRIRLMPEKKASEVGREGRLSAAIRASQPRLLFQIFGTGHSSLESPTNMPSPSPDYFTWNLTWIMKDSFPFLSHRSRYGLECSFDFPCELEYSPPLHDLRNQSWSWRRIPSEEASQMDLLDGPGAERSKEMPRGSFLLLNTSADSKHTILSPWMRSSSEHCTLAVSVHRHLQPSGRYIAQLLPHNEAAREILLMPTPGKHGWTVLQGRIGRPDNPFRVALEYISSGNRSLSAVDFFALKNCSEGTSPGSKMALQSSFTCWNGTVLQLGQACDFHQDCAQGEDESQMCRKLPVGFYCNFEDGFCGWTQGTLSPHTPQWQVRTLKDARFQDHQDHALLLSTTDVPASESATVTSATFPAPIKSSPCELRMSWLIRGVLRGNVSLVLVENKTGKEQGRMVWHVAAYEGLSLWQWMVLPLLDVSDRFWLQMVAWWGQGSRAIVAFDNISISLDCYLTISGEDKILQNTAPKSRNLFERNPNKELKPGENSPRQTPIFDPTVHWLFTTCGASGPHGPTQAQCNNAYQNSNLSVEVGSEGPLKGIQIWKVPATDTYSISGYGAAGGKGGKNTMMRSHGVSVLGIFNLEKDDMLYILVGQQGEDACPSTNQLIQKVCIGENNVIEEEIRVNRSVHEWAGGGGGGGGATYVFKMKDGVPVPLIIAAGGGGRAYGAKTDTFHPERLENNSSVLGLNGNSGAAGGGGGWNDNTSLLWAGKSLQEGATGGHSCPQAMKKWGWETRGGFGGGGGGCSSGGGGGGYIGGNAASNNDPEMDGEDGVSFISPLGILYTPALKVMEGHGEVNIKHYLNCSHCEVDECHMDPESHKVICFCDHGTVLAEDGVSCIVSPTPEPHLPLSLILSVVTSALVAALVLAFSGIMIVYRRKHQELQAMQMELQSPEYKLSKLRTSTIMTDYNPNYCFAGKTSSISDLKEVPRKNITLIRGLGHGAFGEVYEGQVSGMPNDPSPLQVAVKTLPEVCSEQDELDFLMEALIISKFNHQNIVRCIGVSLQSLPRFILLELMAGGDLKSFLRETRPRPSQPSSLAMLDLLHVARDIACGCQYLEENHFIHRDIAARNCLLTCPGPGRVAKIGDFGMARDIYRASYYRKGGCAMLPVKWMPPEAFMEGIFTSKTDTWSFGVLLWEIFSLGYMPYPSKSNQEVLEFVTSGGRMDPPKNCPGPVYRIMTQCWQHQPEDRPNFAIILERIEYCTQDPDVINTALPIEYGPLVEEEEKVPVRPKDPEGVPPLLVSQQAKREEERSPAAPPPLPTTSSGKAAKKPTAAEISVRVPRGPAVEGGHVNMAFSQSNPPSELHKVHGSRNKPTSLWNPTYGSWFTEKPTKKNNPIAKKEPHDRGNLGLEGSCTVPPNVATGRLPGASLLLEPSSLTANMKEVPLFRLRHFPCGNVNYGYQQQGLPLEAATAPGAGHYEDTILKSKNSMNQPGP", "settings": "read-out: Percent Control", "from_the_text": "as §1"}, "CDK9": {"target": "CDK9 (Homo sapiens, UniProt P50750)", "settings": "1000 nM, read-out: Percent Control", "from_the_text": "as §1"}, "EPHA3": {"target": "EPHA3 (Homo sapiens, UniProt P29320)", "settings": "read-out: Percent Control", "from_the_text": "as §1"}, "PRKD3": {"target": "PRKD3 (Homo sapiens, UniProt O94806)", "settings": "1000 nM, read-out: Percent Control", "from_the_text": "as §1"}, "HIPK1": {"target": "HIPK1 (Homo sapiens, UniProt Q86Z02)", "settings": "1000 nM, read-out: Percent Control", "from_the_text": "as §1"}, "CAMKK2": {"target": "CAMKK2 (Homo sapiens, UniProt Q96RR4)", "settings": "1000 nM, read-out: Percent Control", "from_the_text": "as §1"}, "QSK": {"target": "QSK (Homo sapiens, UniProt Q9Y2K2)", "sequence (Q9Y2K2 whole entry)": "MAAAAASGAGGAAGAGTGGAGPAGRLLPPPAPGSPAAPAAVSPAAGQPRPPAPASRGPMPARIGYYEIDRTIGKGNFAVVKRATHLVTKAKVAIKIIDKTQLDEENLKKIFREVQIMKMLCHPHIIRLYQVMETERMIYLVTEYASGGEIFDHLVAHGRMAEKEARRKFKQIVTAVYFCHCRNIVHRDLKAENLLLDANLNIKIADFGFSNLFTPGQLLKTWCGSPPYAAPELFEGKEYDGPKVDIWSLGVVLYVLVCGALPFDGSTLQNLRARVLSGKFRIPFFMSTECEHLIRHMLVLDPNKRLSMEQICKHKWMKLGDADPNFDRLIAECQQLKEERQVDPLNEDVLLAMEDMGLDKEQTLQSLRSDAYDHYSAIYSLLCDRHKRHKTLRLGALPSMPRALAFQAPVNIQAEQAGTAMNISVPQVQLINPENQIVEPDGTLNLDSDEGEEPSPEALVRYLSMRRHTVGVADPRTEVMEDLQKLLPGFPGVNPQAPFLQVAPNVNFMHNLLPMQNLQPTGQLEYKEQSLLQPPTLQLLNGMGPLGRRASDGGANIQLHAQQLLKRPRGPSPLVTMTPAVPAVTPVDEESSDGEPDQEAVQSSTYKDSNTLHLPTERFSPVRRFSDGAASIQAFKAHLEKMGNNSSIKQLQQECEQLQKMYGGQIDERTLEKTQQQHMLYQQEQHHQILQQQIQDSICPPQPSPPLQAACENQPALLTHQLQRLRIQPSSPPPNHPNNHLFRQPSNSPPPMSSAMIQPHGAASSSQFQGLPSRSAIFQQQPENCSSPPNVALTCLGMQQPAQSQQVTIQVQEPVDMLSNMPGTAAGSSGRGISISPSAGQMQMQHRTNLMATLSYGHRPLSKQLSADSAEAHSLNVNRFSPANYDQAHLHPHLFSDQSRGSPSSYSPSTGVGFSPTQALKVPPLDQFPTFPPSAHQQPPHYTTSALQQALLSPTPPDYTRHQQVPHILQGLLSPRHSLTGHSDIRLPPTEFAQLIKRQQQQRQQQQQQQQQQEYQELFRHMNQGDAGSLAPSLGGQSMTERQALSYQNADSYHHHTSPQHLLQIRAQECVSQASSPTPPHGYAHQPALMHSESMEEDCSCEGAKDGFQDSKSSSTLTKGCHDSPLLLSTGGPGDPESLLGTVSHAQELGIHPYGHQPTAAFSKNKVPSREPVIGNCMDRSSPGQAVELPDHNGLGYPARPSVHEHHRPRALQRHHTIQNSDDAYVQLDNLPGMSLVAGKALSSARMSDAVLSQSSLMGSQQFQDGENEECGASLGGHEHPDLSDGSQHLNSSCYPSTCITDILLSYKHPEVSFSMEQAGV", "settings": "read-out: Percent Control", "from_the_text": "as §1"}, "BMPR2": {"target": "BMPR2 (Homo sapiens, UniProt Q13873)", "settings": "read-out: Percent Control", "from_the_text": "as §1"}, "MAK": {"target": "MAK (Homo sapiens, UniProt P20794)", "settings": "compound concentration 100 nM; Entrez MAK; read-out: Percent Control", "from_the_text": "as §1"}, "DDR1": {"target": "DDR1 (Homo sapiens, UniProt Q08345)", "settings": "read-out: Percent Control", "from_the_text": "as §1"}, "PKAC-alpha": {"target": "PKAC-alpha (Homo sapiens, UniProt P17612)", "settings": "compound concentration 100 nM; Entrez PRKACA; read-out: Percent Control", "from_the_text": "as §1"}, "HUNK": {"target": "HUNK (Homo sapiens, UniProt P57058)", "settings": "read-out: Percent Control", "from_the_text": "as §1"}, "SRPK2": {"target": "SRPK2 (Homo sapiens, UniProt P78362)", "settings": "compound concentration 100 nM; Entrez SRPK2; read-out: Percent Control", "from_the_text": "as §1"}, "HCK": {"target": "HCK (Homo sapiens, UniProt P08631)", "settings": "1000 nM, read-out: Percent Control", "from_the_text": "as §1"}, "JNK1": {"target": "JNK1 (Homo sapiens, UniProt P45983)", "settings": "compound concentration 100 nM; Entrez MAPK8; read-out: Percent Control", "from_the_text": "as §1"}, "CAMK2B": {"target": "CAMK2B (Homo sapiens, UniProt Q13554)", "settings": "1000 nM, read-out: Percent Control", "from_the_text": "as §1"}, "FRK": {"target": "FRK (Homo sapiens, UniProt P42685)", "settings": "1000 nM, read-out: Percent Control", "from_the_text": "as §1"}, "PHKG2": {"target": "PHKG2 (Homo sapiens, UniProt P15735)", "settings": "1000 nM, read-out: Percent Control", "from_the_text": "as §1"}, "WEE2": {"target": "WEE2 (Homo sapiens, UniProt P0C1S8)", "settings": "1000 nM, read-out: Percent Control", "from_the_text": "as §1"}, "YANK3": {"target": "YANK3 (Homo sapiens, UniProt Q86UX6)", "settings": "1000 nM, read-out: Percent Control", "from_the_text": "as §1"}, "SNARK": {"target": "SNARK (Homo sapiens, UniProt Q9H093)", "settings": "1000 nM, read-out: Percent Control", "from_the_text": "as §1"}, "[1]": {"target": "RSK1(Kin.Dom.2-C-terminal) (Homo sapiens, UniProt Q15418)", "settings": "compound concentration 100 nM; Entrez RPS6KA1; read-out: Percent Control", "from_the_text": "as §1"}, "ERK3": {"target": "ERK3 (Homo sapiens, UniProt Q16659)", "sequence (Q16659 whole entry)": "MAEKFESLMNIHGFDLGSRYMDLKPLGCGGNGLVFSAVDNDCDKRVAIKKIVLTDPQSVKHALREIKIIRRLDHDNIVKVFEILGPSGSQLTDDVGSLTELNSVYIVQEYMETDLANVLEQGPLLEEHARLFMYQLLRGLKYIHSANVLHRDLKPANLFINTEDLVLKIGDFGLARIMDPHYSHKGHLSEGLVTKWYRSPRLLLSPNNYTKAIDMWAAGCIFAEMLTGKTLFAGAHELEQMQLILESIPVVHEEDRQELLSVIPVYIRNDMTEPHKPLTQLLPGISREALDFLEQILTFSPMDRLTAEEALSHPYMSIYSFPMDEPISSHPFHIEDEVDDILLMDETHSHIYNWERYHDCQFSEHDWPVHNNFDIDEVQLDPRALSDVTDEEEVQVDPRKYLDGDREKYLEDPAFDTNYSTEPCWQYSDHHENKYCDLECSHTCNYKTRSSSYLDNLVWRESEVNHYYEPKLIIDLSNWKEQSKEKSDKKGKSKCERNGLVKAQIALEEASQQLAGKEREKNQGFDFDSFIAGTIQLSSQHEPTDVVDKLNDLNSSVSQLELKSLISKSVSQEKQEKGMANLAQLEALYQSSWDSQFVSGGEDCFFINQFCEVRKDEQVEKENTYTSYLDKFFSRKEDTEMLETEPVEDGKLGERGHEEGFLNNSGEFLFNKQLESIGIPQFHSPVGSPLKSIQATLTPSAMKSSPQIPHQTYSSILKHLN", "settings": "read-out: Percent Control", "from_the_text": "as §1"}, "RAF1": {"target": "RAF1 (Homo sapiens, UniProt P04049)", "settings": "compound concentration 100 nM; Entrez RAF1; read-out: Percent Control", "from_the_text": "as §1"}}, "data": [{"smiles": "CN1C(=O)[C@@H](N2CCc3c(nn(Cc4ccccc4)c3C(N)=O)C2=O)COc2cc(Cl)ccc21", "note": "[Compound 10, (S)-2-benzyl-6-(8-chloro-5-methyl-4-oxo-2,3,4,5-tetrahydrobenzo[b][1,4]oxazepin-3-yl)-7-oxo-4,5,6,7-tetrahydro-2H-pyrazolo[3,4-c]pyridine-3-carboxamide]", "values": [{"measurement": "remaining binding at 1 µM", "setting": "RIPK4", "value": 83, "unit": "%"}, {"measurement": "remaining binding at 0.1 µM", "setting": "PRKCH", "value": 92, "unit": "%"}, {"measurement": "remaining binding at 1 µM", "setting": "PAK1", "value": 76, "unit": "%"}, {"measurement": "remaining binding at 1 µM", "setting": "ITK", "value": 89, "unit": "%"}, {"measurement": "remaining binding at 1 µM", "setting": "CAMK2D", "value": 89, "unit": "%"}, {"measurement": "remaining binding at 1 µM", "setting": "ERBB4", "value": 87, "unit": "%"}, {"measurement": "remaining binding at 1 µM", "setting": "MST1", "value": 92, "unit": "%"}, {"measurement": "remaining binding at 1 µM", "setting": "CDK8", "value": 92, "unit": "%"}, {"measurement": "remaining binding at 1 µM", "setting": "MARK2", "value": 81, "unit": "%"}, {"measurement": "remaining binding at 1 µM", "setting": "EPHA4; 1000 nM", "value": 100, "unit": "%"}, {"measurement": "remaining binding at 0.1 µM", "setting": "EPHA4; compound concentration 100 nM, Entrez EPHA4", "value": 99, "unit": "%"}, {"measurement": "remaining binding at 1 µM", "setting": "DCAMKL3; 1000 nM", "value": 100, "unit": "%"}, {"measurement": "remaining binding at 0.1 µM", "setting": "DCAMKL3; compound concentration 100 nM, Entrez DCLK3", "value": 75, "unit": "%"}, {"measurement": "remaining binding at 1 µM", "setting": "AKT2; 1000 nM", "value": 100, "unit": "%"}, {"measurement": "remaining binding at 0.1 µM", "setting": "AKT2; compound concentration 100 nM, Entrez AKT2", "value": 90, "unit": "%"}, {"measurement": "remaining binding at 1 µM", "setting": "ALK; 1000 nM", "value": 100, "unit": "%"}, {"measurement": "remaining binding at 0.1 µM", "setting": "ALK; compound concentration 100 nM, Entrez ALK", "value": 84, "unit": "%"}, {"measurement": "remaining binding at 1 µM", "setting": "CDK9", "value": 85, "unit": "%"}, {"measurement": "remaining binding at 1 µM", "setting": "EPHA3; 1000 nM", "value": 100, "unit": "%"}, {"measurement": "remaining binding at 0.1 µM", "setting": "EPHA3; compound concentration 100 nM, Entrez EPHA3", "value": 77, "unit": "%"}, {"measurement": "remaining binding at 1 µM", "setting": "PRKD3", "value": 92, "unit": "%"}, {"measurement": "remaining binding at 1 µM", "setting": "HIPK1", "value": 93, "unit": "%"}, {"measurement": "remaining binding at 1 µM", "setting": "CAMKK2", "value": 80, "unit": "%"}, {"measurement": "remaining binding at 1 µM", "setting": "QSK; 1000 nM", "value": 98, "unit": "%"}, {"measurement": "remaining binding at 0.1 µM", "setting": "QSK; compound concentration 100 nM, Entrez KIAA0999", "value": 90, "unit": "%"}, {"measurement": "remaining binding at 1 µM", "setting": "BMPR2; 1000 nM", "value": 100, "unit": "%"}, {"measurement": "remaining binding at 0.1 µM", "setting": "BMPR2; compound concentration 100 nM, Entrez BMPR2", "value": 90, "unit": "%"}, {"measurement": "remaining binding at 0.1 µM", "setting": "MAK", "value": 94, "unit": "%"}, {"measurement": "remaining binding at 1 µM", "setting": "DDR1; 1000 nM", "value": 100, "unit": "%"}, {"measurement": "remaining binding at 0.1 µM", "setting": "DDR1; compound concentration 100 nM, Entrez DDR1", "value": 77, "unit": "%"}, {"measurement": "remaining binding at 0.1 µM", "setting": "PKAC-alpha", "value": 90, "unit": "%"}, {"measurement": "remaining binding at 1 µM", "setting": "HUNK; 1000 nM", "value": 100, "unit": "%"}, {"measurement": "remaining binding at 0.1 µM", "setting": "HUNK; compound concentration 100 nM, Entrez HUNK", "value": 82, "unit": "%"}, {"measurement": "remaining binding at 0.1 µM", "setting": "SRPK2", "value": 100, "unit": "%"}, {"measurement": "remaining binding at 1 µM", "setting": "HCK", "value": 92, "unit": "%"}, {"measurement": "remaining binding at 0.1 µM", "setting": "JNK1", "value": 79, "unit": "%"}, {"measurement": "remaining binding at 1 µM", "setting": "CAMK2B", "value": 80, "unit": "%"}, {"measurement": "remaining binding at 1 µM", "setting": "FRK", "value": 81, "unit": "%"}, {"measurement": "remaining binding at 1 µM", "setting": "PHKG2", "value": 78, "unit": "%"}, {"measurement": "remaining binding at 1 µM", "setting": "WEE2", "value": 82, "unit": "%"}, {"measurement": "remaining binding at 1 µM", "setting": "YANK3", "value": 92, "unit": "%"}, {"measurement": "remaining binding at 1 µM", "setting": "SNARK", "value": 92, "unit": "%"}, {"measurement": "remaining binding at 0.1 µM", "setting": "[1]", "value": 97, "unit": "%"}, {"measurement": "remaining binding at 1 µM", "setting": "ERK3; 1000 nM", "value": 100, "unit": "%"}, {"measurement": "remaining binding at 0.1 µM", "setting": "ERK3; compound concentration 100 nM, Entrez MAPK6", "value": 87, "unit": "%"}, {"measurement": "remaining binding at 0.1 µM", "setting": "RAF1", "value": 100, "unit": "%"}]}]}
